From paper PMC8708492, “Homing Peptide-Based Targeting of Tenascin-C and Fibronectin in Endometriosis” (Nanomaterials, 2021)

Experiments:
12Z cells = assay: Binding of peptide-displaying T7 phages to cultured cells (plaque assay); set-up: species or system human; details: peptide displayed on T7 phage, 12Z cells in suspension, 4 °C, 1 h, washed, N = 3
Protocol: (§1) Peptide-displaying T7 bacteriophages were prepared by cloning nucleotide sequences coding for different peptides into phage genomic DNA to be expressed on the phage surface as C-terminal fusions to capsid protein. The complementary oligonucleotides were annealed, and the cloning was performed according to the manufacturer’s protocol using the T7Select® 415-1 Cloning Kit (Millipore, 70015-3, Merck KGaA, Darmstadt, Germany). Peptide-displaying phage clones were thereafter amplified in complementing host bacterial cells BLT5403 and purified with polyethylene glycol according to an established protocol.
(§2) Prior to phage addition, 12Z and HESC cells were detached, washed with PBS, and resuspended in 0.5% BSA containing DMEM. Phages expressing a single peptide of interest (5 × 10^7 PFU/mL) were added to 5 × 10^7 cells, wherein insertless phage was used as a negative control. Incubation with phage clones was carried out on a slowly rocking platform at 4 °C for 1 h. Cells were washed four times with 0.5% BSA containing DMEM to eliminate unbound phages. Finally, the cells together with bound phages were resuspended in 1% NP40 containing LB solution, and plaque assay was performed as described earlier. Briefly, the amount of phage in cell lysates was determined by titering using Escherichia coli strain BLT5615 in LB medium containing 2 mM IPTG.
(§3) Figure 1 Binding of peptide-phages to cultured 12Z and HESC cells. Cells were incubated with the different peptide-displaying phages at 4 °C for 1 h, washed, and phage binding quantified by plaque assay. The phage binding is represented as a fold over insertless phage. N = 3, error bars = ±SEM. *** p < 0.001 (compared with insertless phage).

HESC cells = assay: as above; set-up: species or system human; details: peptide displayed on T7 phage, HESC cells in suspension, 4 °C, 1 h, washed, N = 3
Protocol: as §1, §2, §3

Row | Substance | phage binding, fold over insertless phage (12Z cells) | phage binding, fold over insertless phage (HESC cells)
1 | VRRADNRPG [EM1, receptor CNGB3] | low/background binding | –
2 | RTRLHTR [EM2, receptor unknown] | low/background binding | ~ 2 fold
3 | C * RGDKGPDC * (disulfide) [iRGD, disulfide-cyclised peptide targeting angiogenic αv integrins and NRP-1] | 3 fold | 9 fold
4 | PPRRGLIKLKTS [PL1] | 13–16 fold | 13–16 fold
5 | AGRGRLVR (displayed on T7 phage) [PL3] | 4–6 fold | 4–6 fold
6 | RPARPAR | low/background binding | ~ 2 fold
